The record followed here is patent US20220204971A1, “Compositions and Methods for Inhibiting Cancers and Viruses” (Icahn School of Medicine at Mount Sinai, priority 2018, published 2022).

In one data set the test system is HSATII. Description: HSATII RNA RT-qPCR in HCMV-infected HFFs treated with CHX or GCV. Particulars: for HSATII levels: HFFs, HCMV 1 TCID50/cell, GCV added after 2 h. Type of data set: cell-based, human. On the procedure: FIGS. 2a-d disclose HSATII induction levels in cells infected with active virus as compared to UV-irradiated virus. a HFFs were infected with untreated or UV-irradiated HCMV (TB40/E-GFP) at 3 TCID50/cell, RNA samples were collected at specified times. b HFFs were treated with CHX or DMSO, as a solvent control, 24 h before HCMV (TB40/E-GFP) infection at 1 TCID50/cell. RNA samples were collected at 24 hpi. c HFFs were infected with HCMV (TB40/E-GFP) at 1 TCID50/cell for 2 h and then media was changed for one containing GCV or DMSO as a solvent control. RNA samples were collected at 24 and 48 hpi. d Tetracycline-inducible […] and/or IE2 MRC-5 and ARPE-19 cells were treated with doxycycline. RNA samples were collected at indicated times. a-d RT-qPCR was performed using HSATII-specific primers. GAPDH was used as an internal control. n=3. Data are presented as a fold change mean±SD. a-c ***P<0.001, ****P<0.0001 by the unpaired, two-tailed t-test with (b, c) or without (a) Welch's correction. ns—not significant. Open circles represent single data points.
(§1) Cyclohexamide (Sigma-Aldrich) and ganciclovir (Sigma-Aldrich) were dissolved in DMSO and used at 100 μg ml^−1 or 50 1.1M concentrations, respectively. Doxycycline (Sigma-Aldrich) was dissolved in water and used at 2 μg ml^−1. Puromycin was dissolved in water and used at 1.5 1.1 g ml^−1 (MRC-5) or 21.1 g ml^−1 (ARPE-19). G418 was dissolved in water and used at 800 μg ml-1 (MRC-5) or 1 mg ml-1 G418 (ARPE-19).
For quantitative reverse transcription PCR (qRT-PCR) analysis, cells were collected in QIAzol Lysis Reagent (Qiagen). To fractionate RNA, DNA and proteins chloroform was added; samples were spun at 12,000×g for 15 min. at 4° C. […] Quantitative PCR (qPCR) was performed using SYBR Green master mix (Applied Biosystems by Thermo Fisher Scientific, Foster City, Calif.) on the QuantStudio 6 Flex-Real Time PCR System (Applied Biosystems by Thermo Fisher Scientific). […]
(§2) Transcript levels were analyzed using the […] method and GAPDH or B2M were used as an internal control. […]

The subject of another data set is UL99. As to the kind of experiment: UL99 late gene RNA RT-qPCR in HCMV-infected HFFs treated with GCV. Type of data set: cell-based. Particulars: HCMV 1 TCID50/cell, 48 hpi. How it is done:
FIG. 12 discloses the accumulation of UL99 gene RNA in the presence of DMSO or GCV in infected cells. HFFs were infected with HCMV (TB40/E-GFP; 1 TCID50/cell) for 2 h and then media was changed for one containing GCV or DMSO as a solvent control. RNA samples were collected at 48 hpi. RT-qPCR was performed using UL99-specific primers. GAPDH was used as an internal control. Data were averaged from at least three experiments and are presented as a fold change mean (SD).
as §1
For quantitative reverse transcription PCR (qRT-PCR) analysis, cells were collected in QIAzol Lysis Reagent (Qiagen). […] Quantitative PCR (qPCR) was performed using SYBR Green master mix (Applied Biosystems by Thermo Fisher Scientific, Foster City, Calif.) on the QuantStudio 6 Flex-Real Time PCR System (Applied Biosystems by Thermo Fisher Scientific). […]
as §2
Background: Real-time PCR tracks product formation cycle by cycle.

Another data set relates to HCMV (TB40-epi). Description: HCMV infectious particle yield from LNA-transfected ARPE-19 epithelial cells, PFU/ml. Type of data set: cell-based. Particulars: ARPE-19, PFU/ml; 96 hpi. On the procedure:
FIG. 26 discloses the effect of HSATII knockdown using four different HSAT-II LNAs on the production of HCMV infectious particles from human retinal pigment cells. Media samples were collected at 96 hpi from ARPE-19 cells transfected with NT-LNA or different HSATII-LNAs 24 h before HCMV (TB40-epi) infection at 1 TCID50/cell. PFU/ml values were determined. Data were averaged from at least three independent experiments and are presented as a mean (SD). Unpaired, two-tailed t-test was used to measure significance. One, two, three or four asterisks represent p<0.05, p<0.01, p<0.001 or p<0.0001, respectively.
Media samples were collected at 96 hpi from ARPE-19 cells transfected with NT-LNA or different HSATII-LNAs 24 h before HCMV (TB40-epi) infection at 1 TCID50/cell. PFU/ml values were determined. Data were averaged from at least three independent experiments and are presented as a mean (SD). […] Cells treated with the combined HSATII-LNA #1 and HSATII-LNA #2 produced only ˜0.6% of intracellular and ˜1% extracellular HCMV viral particles produced by control cells treated with NT-LNA. To compare, cells treated with HSATII-LNA #1 produced ˜33% of intracellular and ˜6% of extracellular HCMV viral particles produced by control cells treated with NT-LNA. Cells treated with HSATII-LNA #2 produced 23% of intracellular and 6% of extracellular HCMV viral particles produced by control cells treated with NT-LNA. Unpaired, two-tailed t-test was used to measure significance. One, two, three or four asterisks represent p<0.05, p<0.01, p<0.001 or p<0.0001, respectively.
Locked nucleic acid oligonucleotides were designed to target identified, highly abundant HSATII transcripts from different chromosomal loci. […] Cells were collected at the indicated time post infection using QIAzol buffer (QIAGEN, Hilden, Germany) and stored at −80° C. until sample processing.

`C[C@@H]1C[C@@H]([C@H](O)CC2CC(=O)NC(=O)C2)C(=O)[C@@H](C)C1` [Cycloheximide]: in the data set on HSATII (HFFs treated with CHX 24 h before HCMV (TB40/E-GFP) infection at 1 TCID50/cell, 24 hpi), the “reduction of HSATII accumulation compared to solvent control” value is given as 33 fold.
For the compound `Nc1nc(O)c2ncn(COC(CO)CO)c2n1` [ganciclovir], the HSATII levels entry in the data set with HSATII (24 hpi) and in the data set with HSATII (48 hpi) was “did not change” throughout. Besides, the “accumulation of RNA from the late UL99 gene” value in the data set on UL99 is listed as “blocked”.
As for “HSATII-LNA #2: locked nucleic acid oligonucleotide targeting HSATII transcripts, 5′-GATTCCATTCGATGAT-3′ (locked nucleic acid oligonucleotide, LNA positions and linkages not given here)”, in the data set on HCMV (TB40-epi), the “extracellular HCMV viral particles, % of those produced by control cells treated with NT-LNA” value is reported as 6% and the “intracellular HCMV viral particles, % of those produced by control cells treated with NT-LNA” value turned out to be 23%.
The like results for “HSATII-LNA #1: locked nucleic acid oligonucleotide targeting HSATII transcripts, 5′-CCATTCGATAATTCCG-3′ (locked nucleic acid oligonucleotide, LNA positions and linkages not given here)” were, in that order, around 6% and around 33%.
